The text below walks through data of PMC9504029, “Identification and Characterization of Novel Small-Molecule SMOX Inhibitors” (Medical Sciences, 2022).

Read-outs that look alike come from different tables or passages of the source.

The target of series [1] is T1, recombinant human MAO-A (Homo sapiens, UniProt P21397).
T1 construct: purchased Sigma-Aldrich M7316-1VL
T1 sequence (P21397 1-527): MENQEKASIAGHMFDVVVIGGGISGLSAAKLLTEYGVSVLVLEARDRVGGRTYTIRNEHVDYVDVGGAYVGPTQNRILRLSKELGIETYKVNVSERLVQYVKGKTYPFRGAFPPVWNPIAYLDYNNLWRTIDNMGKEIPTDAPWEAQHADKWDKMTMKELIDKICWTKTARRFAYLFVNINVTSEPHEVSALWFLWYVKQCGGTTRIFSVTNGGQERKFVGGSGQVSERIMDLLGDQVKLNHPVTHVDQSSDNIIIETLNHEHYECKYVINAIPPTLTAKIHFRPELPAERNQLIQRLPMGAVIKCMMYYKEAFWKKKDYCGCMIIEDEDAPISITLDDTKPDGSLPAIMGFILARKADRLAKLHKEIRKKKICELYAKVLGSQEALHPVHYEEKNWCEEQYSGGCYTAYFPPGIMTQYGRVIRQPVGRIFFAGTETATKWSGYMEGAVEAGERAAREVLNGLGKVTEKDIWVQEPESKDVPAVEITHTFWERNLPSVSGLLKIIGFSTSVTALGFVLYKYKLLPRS
Put plainly: MAO-Glo assay, MAO-A. The format is biochemical. To be noted: for inhibition at 20 µM: read-out: % Inhibition at 20 μM ± SD, MAO-A. The method, then: (§1) To determine selectivity, the compounds were tested for activity against the related FAD-dependent amine oxidase enzymes LSD1, MAO-A, and MAO-B. LSD1 activity was assessed using a commercially available assay kit (#700120, Cayman Chemical, Ann Arbor, MI, USA), in which the enzyme activity was determined by the horseradish peroxidase-catalyzed oxidation of 10-acetyl-3,7-dihydroxyphenoxazine to the highly fluorescent resorufin in response to H2O2 production. Monoamine oxidase activity was determined using recombinant human MAO-A and MAO-B (M7316-1VL & M7441-1VL, Sigma-Aldrich, St. Louis, MO, USA) and a commercially available assay kit (#V1401, MAO-Glo, Promega, Madison, WI, USA), which utilizes the MAO-catalyzed oxidation of a luciferin derivative coupled with esterase activity to produce luminescence. Fluorescent and luminescent readout was obtained using a SpectraMax M5 plate reader (Molecular Devices) equipped with SOFTmax PRO 7.0.3 software. […] Values were reported as mean % inhibition ± SD of triplicate assay wells normalized to background activity and compared to the vehicle control.

Series [2] has as its target T2, recombinant human MAO-B (Homo sapiens, UniProt P27338).
T2 construct: purchased Sigma-Aldrich M7441-1VL
T2 sequence (P27338 1-520): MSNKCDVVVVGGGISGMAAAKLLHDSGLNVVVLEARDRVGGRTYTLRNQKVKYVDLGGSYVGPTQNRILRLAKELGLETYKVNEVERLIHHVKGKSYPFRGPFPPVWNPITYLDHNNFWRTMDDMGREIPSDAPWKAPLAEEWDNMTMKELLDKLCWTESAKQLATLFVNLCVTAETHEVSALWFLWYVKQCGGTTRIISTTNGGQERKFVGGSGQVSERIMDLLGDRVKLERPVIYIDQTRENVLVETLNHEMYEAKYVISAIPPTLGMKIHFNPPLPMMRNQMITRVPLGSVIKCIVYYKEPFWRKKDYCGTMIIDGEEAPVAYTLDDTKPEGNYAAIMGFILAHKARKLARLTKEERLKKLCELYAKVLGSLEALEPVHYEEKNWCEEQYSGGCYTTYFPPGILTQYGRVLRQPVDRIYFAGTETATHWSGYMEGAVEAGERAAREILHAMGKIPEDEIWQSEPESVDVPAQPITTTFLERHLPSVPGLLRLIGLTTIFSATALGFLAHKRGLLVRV
Nature of the series: MAO-Glo assay, MAO-B. Conditions: for inhibition at 20 µM: read-out: % Inhibition at 20 μM ± SD, MAO-B. It is filed as biochemical. The procedure: as §1

The target of series [3] is T3, SMOX (Homo sapiens, UniProt Q9NWM0).
T3 construct: using 0.3 µg/mL of purified SMOX enzyme and 2 mM of spermine substrate
Put plainly: SMOX enzyme activity, HRP-luminol chemiluminescence assay. Conditions: 2 mM spermine; for inhibition at 20 µM: 20 µM compound, no pre-incubation, triplicate, read-out: % Inhibition at 20 μM ± SD, SMOX; for IC50: AUC over 60 s, pH 8. The format is biochemical. The method, then:
As the catabolism of spermine by SMOX results in the stoichiometric production of H2O2, enzyme activity was quantified by chemiluminescence generated by the horseradish peroxidase-catalyzed oxidation of luminol in 96-well plates (Costar #3912; white, flat bottom), as previously described. All assays were performed in 0.083 M glycine buffer at a pH of 8 using 0.3 µg/mL of purified SMOX enzyme and 2 mM of spermine substrate. Phosphate buffer was not used to prevent the formation of polyamine–phosphate complexes. Enzyme reactions were initiated by the addition of SMOX and HRP to all other assay components; inhibitors were not pre-incubated with enzyme. Triplicate determinations were obtained for each measurement by recording the luminescence (AUC) over 60 s. Hit compounds were then confirmed by monitoring the assay over 600 s. Each triplicate assay point contained a 4th control well to monitor and normalize the data with regards to luminescent decay over time. The compounds were initially screened for activity at a concentration of 20 µM. […] The known SMOX inhibitor, MDL-72527, was used as a control. The hit compounds were then characterized by IC50 and kinetic analyses. Percent inhibition values are reported as triplicate mean % SMOX inhibition ± SD compared to the vehicle control. IC50 values were calculated in GraphPad Prism 9.3 software (Graph-Pad, San Diego, California) using a non-linear regression analysis ([Inhibitor] vs. normalized response—variable slope). Data for all enzyme assays were generated using a SpectraMax M5 plate reader (Molecular Devices) equipped with SOFTmax PRO 7.0.3 software.

The target of series [4] is T4, LSD1 (Homo sapiens, UniProt O60341).
T4 construct: purchased Cayman Chemical #700120
Nature of the series: LSD1 selectivity assay (Cayman kit, resorufin fluorescence). It is filed as biochemical. Conditions: read-out: % Inhibition at 20 μM ± SD, LSD1.

Series [5] relates to SH-SY5Y neuroblastoma cells. Nature of the series: Cytotoxicity analysis, MTS assay. It is filed as cell-based. To be noted: doses below 1 mM. The procedure:
(§2) SH-SY5Y neuroblastoma cells purchased from ATCC (Manassas, VA, USA) were cultured in Dulbecco’s modified Eagle medium (DMEM) without phenol red and supplemented with 10% heat inactivated human AB serum, 4 mM L-glutamine, and 1% penicillin/streptomycin. As the oxidation of spermine by various polyamine oxidases has been documented in cell culture containing ruminant serum, such as in fetal bovine serum (FBS) and horse serum, human AB serum was used to prevent assay interference. The cells were maintained in 5% CO2 humidified atmosphere at 37 °C. Cell media was replaced every 2 days and the cells were discarded after a maximum of 15 passages.
(§3) The SH-SY5Y neuroblastoma cells were plated in 96-well plates at a density of 30,000 cells/well and allowed to reach 80% confluence, followed by treatment with varying concentrations of inhibitor ranging from 0 to 10 mM for 12 h. Cell viability was assessed by standard MTS assay, in which MTS reagent was added to each well at a concentration of 0.33 mg/mL and incubated at 37 °C for 3 h. Viability was monitored and confirmed by a visual inspection of the cells. Absorbance was read at 490 nm and the absorbance values were normalized to background wells containing varying concentrations of inhibitor, cell media, and MTS reagent. Colorimetric readout was obtained using a SpectraMax M5 plate reader (Molecular Devices) equipped with SOFTmax PRO 7.0.3 software.

Series [6] in a line: Cytotoxicity analysis, MTS assay. The format is cell-based. To be noted: human, SH-SY5Y neuroblastoma cells, MTS. The procedure:
as §2, §3

The target in series [7] is T3, SMOX. Nature of the series: Mechanism of inhibition and enzyme kinetics (Lineweaver–Burk, global fit). The format is biochemical. The procedure: The mechanism of enzyme inhibition was determined using the HRP-luminol coupled enzyme assay described above. Reaction velocity (max RLU/sec over 10 min) was measured across multiple substrate and inhibitor concentrations, and individual triplicate values were plotted using a Lineweaver–Burk transformation (double-reciprocal) in GraphPad Prism 9.3 software (Graph-Pad, San Diego, CA, USA).

Series [8] concerns the target T3, SMOX. Conditions: cited from earlier work.

Usually % Inhibition stands for the share of the control response that was lost under treatment. As a reminder, the inhibition is the drop in the measured response relative to a control, in per cent. As usually defined, the IC50 is the concentration at which inhibition is half-maximal. What is called Ki is the equilibrium dissociation constant of an inhibitor or competing ligand from its target.

T3 sequence (Q9NWM0 whole entry): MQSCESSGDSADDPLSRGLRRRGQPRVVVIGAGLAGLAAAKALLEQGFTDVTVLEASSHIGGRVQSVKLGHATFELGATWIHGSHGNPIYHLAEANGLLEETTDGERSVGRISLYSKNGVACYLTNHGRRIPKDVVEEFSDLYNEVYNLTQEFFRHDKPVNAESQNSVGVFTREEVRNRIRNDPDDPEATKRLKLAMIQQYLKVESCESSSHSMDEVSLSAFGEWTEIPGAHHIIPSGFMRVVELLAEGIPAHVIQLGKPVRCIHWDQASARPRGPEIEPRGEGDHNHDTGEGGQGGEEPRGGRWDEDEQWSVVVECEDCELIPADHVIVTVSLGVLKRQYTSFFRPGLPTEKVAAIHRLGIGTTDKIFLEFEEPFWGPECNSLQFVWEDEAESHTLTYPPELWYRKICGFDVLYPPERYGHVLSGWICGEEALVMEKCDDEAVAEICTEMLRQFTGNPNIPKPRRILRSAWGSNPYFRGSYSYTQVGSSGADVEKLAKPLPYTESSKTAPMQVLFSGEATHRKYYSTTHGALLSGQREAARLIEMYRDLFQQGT

Take `N[C@@H]1C[C@H]1c1ccccc1` (racemic) [TCP, Tranylcypromine, reference compound]: the “% Inhibition at 20 μM ± SD, MAO-A” value in series [1] is 92.6 ± 0.2%.

With `N=C(N)NCCCNCC(O)c1cc(O)cc(O)c1` (stereo not drawn) [Compound 2], the inhibition at 20 µM in series [2] was 3.5 ± 1.3%; in series [3], 93.6 ± 1%; in series [1], -5.5 ± 4.2%; in series [4] it was -18.7 ± 9.8%. The IC50 in series [3] is 8.3 µM.

Take `N=C(N)NCCCCNCC(O)c1cc(O)cc(O)c1` (stereo not drawn) [Compound 3]: the inhibition at 20 µM was -16.9 ± 12.3% in series [2], 96.7 ± 0.2% in series [3], -13.7 ± 4.6% in series [1] and 41.6 ± 24.4% in series [4]. Besides, the IC50 in series [3] is 6.02 µM.

`N=C(N)NCCNCC(O)c1ccc(O)c(O)c1` (stereo not drawn) [Compound 4]: the inhibition at 20 µM in series [2] was 12.6 ± 1.6%; in series [3], 95.7 ± 0.3%; in series [1] it was 15.5 ± 0.5%; in series [4], 31.9 ± 12.6%. Also, 0.23 µM corresponded to half-maximal inhibition in series [3] (IC50). Besides, the “Toxicity after 12-h exposure” value in series [5] is recorded as “did not produce significant toxicity”. Besides, the CC50 at 12 h in series [6] (12 h post treatment, read-out: LC50 (dose corresponding to 50% viability)) was found to be 3600 µM.

For `N=C(N)NCCCNCC(O)c1ccc(O)c(O)c1` (stereo not drawn) [Compound 5], the inhibition at 20 µM amounted to 4.5 ± 9.5% in series [2], 96.3 ± 0.1% in series [3], 7.3 ± 0.7% in series [1] and 46.2 ± 25.7% in series [4]. For the same compound, inhibition in series [3] was half-maximal at 0.47 µM (IC50).

For the compound `N=C(N)NCCCNCC(O)c1cc(O)ccc1O` (stereo not drawn) [Compound 7], in series [2], the “% Inhibition at 20 μM ± SD, MAO-B” value is reported as 29.1 ± 2.1%. In addition, the inhibition at 20 µM was 29% in series [2], 99.9 ± 0.1% in series [3], 45% in series [1] and above 73% in series [4]. The compound further had an IC50 in series [3] of 0.23 µM. For the same compound, the Mechanism of inhibition entry in series [7] (Lineweaver–Burk analysis) is on record as “competitive”. The compound also returned a Ki in series [7] (global fit for competitive inhibition, inhibitor 0, 0.1, 1 µM) of 0.46 µM. Further, the “% Inhibition at 20 μM ± SD, MAO-A” value in series [1] is on record as 45.1 ± 7.7%. Besides, the CC50 at 12 h in series [6] (12 h, read-out: LC50) was 130 µM.

For `C=C=CCNCCCCNCC=C=C` [MDL-72527, N^1,N^4-bis(2,3-butadienyl)-1,4-butanediamine], the inhibition at 20 µM in series [3] worked out at 10.2 ± 0.9%. Besides, in series [8], the half-maximal inhibitory concentration (IC50) is 89 to 100 µM, the inhibition constant Ki was 63 µM and the “Mechanism of inhibition of SMOX” value is listed as “irreversible inhibitor”.

As for `CC(C)=CCNC(=N)NCCCCN` [N-prenylagmatine], the “Mechanism of inhibition of SMOX” value in series [8] is “competitive inhibitors”.

On to `[H]/N=C(\N/C(=N/[H])NCCCCCCNC(=N)NC(=N)Nc1ccc(Cl)cc1)Nc1ccc(Cl)cc1` [chlorhexidine], for which, in series [8], the Ki was 0.55 to 3.8 µM and the “Mechanism of inhibition of SMOX” value was “competitive inhibitors”.

As to `N=C(N)NCCCCCCCCNCCCCCCCCNC(=N)N` [guazatine], the “Mechanism of inhibition of SMOX” value in series [8] was “competitive inhibitors”.

In the case of `COc1ccccc1CNCCCCCCNCCCCCCCCNCCCCCCNCc1ccccc1OC` [methoctramine], the inhibition constant Ki in series [8] was 1.2 µM.
